In one series the test system is Sp1. Briefly: Western blot of Sp1, LNCaP cells. It is filed as cell-based, human. In general terms: In western blotting, separated proteins are transferred to a membrane and probed.
Series [1] deals with heat shock protein70 (Hsp70). The series can be described thus: Western blot of heat shock protein70, LNCaP cells. It is filed as cell-based, human.
Protocol: (§3) Both cell lines were propagated in 24-well, 60 or 100 mm culture dishes at the desired density in RPMI 1640 (Mediatech, Herndon, Va.) supplemented with 5% fetal calf serum (FCS) (Biofluids, Rockville, Md.) at 37° C. and 5% CO2 until reaching 50-70% confluence.
(§4) LNCaP or LAPC-4 cells were plated in 10 cm dishes at 9×10^5 cells per dish in RPMI 1640 and 5% FCS. […] Cells were harvested at designated times, and the whole cell lysate was prepared according to manufacturer's instructions (Santa Cruz, Santa Cruz, Calif.). […] Protein levels were measured with a BioRad DC protein assay (BioRad, Hercules, Calif.). Protein samples (20 μg) were loaded into precast 4-12% NuPage gels (Novex, San Diego, Calif.), run with MOPS buffer, and transferred onto a nitrocellulose membrane (BioRad) according to the manufacturer's instructions. A Ponceau S staining was performed for total protein staining and visualized with a digital camera. The membranes were blocked overnight at 4° C. in TBST (20 mM Tris-HCl (pH 8.0), 137 mM NaCl, and 0.1% Tween 20) and 5% dry milk. The membranes were washed 3 times for ten min each with TBST. Primary antibody for the androgen receptor (1:2,000 dilution) (Pharmingen, San Diego, Calif.), Sp1 (1:2,000 dilution) (Santa Cruz) or heat shock protein70 (Hsp70) (1:1,000 diultion) (StressGene Biotechnologies, Victoria, B.C.) was incubated at room temperature for 1 hr. […]
Series [2] deals with PSA. Briefly: PSA protein in spent media, immunometric assay, LNCaP cells. Conditions: 5 days, with or without Mib, normalized by MTS. Type of series: cell-based, human. As for the experimental part: (§1) LNCaP cells were seeded at 2×10^4 cells per well in 24 well plates. […] After a 5 day incubation, the spent media were harvested, and the levels of PSA and hK2 quantified by an immunometric assay as described previously (Hsieh et al., 1997, Cancer Res., 57:2651-6). MTS assays were performed (Promega, Madison, Wis.) as per the manufacturer's instructions. The protein levels of PSA and hK2 were normalized by cell density measurements with the MTS assay.

The test system of series [3] is PSA. Briefly: PSA protein in spent media, immunometric assay, LAPC-4 cells. Type of series: cell-based, human. Particulars: LAPC-4, 5 days, with or without Mib, normalized.
The subject of series [4] is hK2. The series can be described thus: hK2 protein in spent media, immunometric assay, LNCaP cells. Type of series: cell-based, human. Conditions: 5 days, with or without Mib, normalized by MTS. As for the experimental part: as §1
For series [5], the system named is hK2. The series can be described thus: hK2 protein in spent media, immunometric assay, LAPC-4 cells. Type of series: cell-based, human. Particulars: LAPC-4, 5 days, with or without Mib, normalized.
Series [6] has as its system PSA. The series can be described thus: Northern blot of PSA mRNA, LNCaP cells. Particulars: in the presence of androgen, 24 hrs. Type of series: cell-based, human. As for the experimental part: (§2) The films were autoradiographed at −70° C. overnight.
The next series deals with NKX3.1. The series can be described thus: Northern blot of NKX3.1 mRNA, LNCaP cells. Type of series: cell-based, human. Conditions: in the presence of androgen, 24 hrs. As for the experimental part:
as §2

The next series concerns ODC. Briefly: Northern blot of ODC mRNA, LNCaP cells. Particulars: in the presence of androgen, 24 hrs. It is filed as cell-based, human. As for the experimental part: as §2
The test system of another series is male and female rats. Particulars: approximately 40 to 1900 mg/kg/day; cited from earlier work.

The values that follow come from US6680342B2, “Methods and compositions for inhibiting the proliferation of prostate cancer cells” (priority 2001, dated 2004).

Protocol for Sp1: as §3, §4

As to `O=c1c(O)c(-c2ccc(O)c(O)c2)oc2cc(O)cc(O)c12` [quercetin, Quercetin], the Sp1 protein level result in the series on Sp1 is “not affected”. In addition, in series [1], the Hsp70 protein level result was “not affected”. Moreover, the PSA protein levels entry was “inhibits both PSA and hK2 protein levels in a dose-dependent manner” in the series on PSA [2]; “inhibits both PSA and hK2 protein levels in a dose-dependent manner” in the series with PSA [3]. The hK2 protein levels result in the series on hK2 [4] was “inhibits both PSA and hK2 protein levels in a dose-dependent manner”; in the series with hK2 [5], “inhibits both PSA and hK2 protein levels in a dose-dependent manner”. For the same compound, the “PSA mRNA levels” value in the series with PSA [6] is on record as “greatly reduced”. In addition, the “NKX3.1 mRNA levels” value in the series with NKX3.1 is listed as “greatly reduced”. In addition, the “ODC mRNA levels” value in the series with ODC is “greatly reduced”. The effects on survival result with male and female rats is given as “no treatment related effects on survival”.
